Measurements published in US20120296067A1, “COMPOUND CAPABLE OF BINDING TO NATURALLY OCCURRING DENATURED PROTEIN, AND METHOD FOR SCREENING FOR THE COMPOUND” (Prism BioLab Co., Ltd., priority 2010, published 2012).
“Also recorded” adds a separate entry of the source.

Key:
[1] = target: T1, CBP (1-111) (disordered sequence region) and β-catenin (Homo sapiens, UniProt Q92793); settings: cited from earlier work
T1 construct: made in house; host or cells: E. coli

[2] = target: T2, CBP (Homo sapiens, UniProt Q92793); settings: SW480 nuclear extract; FIG. 1; cited from earlier work
T2 construct: endogenous in cells; host or cells: SW480 nuclear extract
T2 sequence (Q92793 whole entry): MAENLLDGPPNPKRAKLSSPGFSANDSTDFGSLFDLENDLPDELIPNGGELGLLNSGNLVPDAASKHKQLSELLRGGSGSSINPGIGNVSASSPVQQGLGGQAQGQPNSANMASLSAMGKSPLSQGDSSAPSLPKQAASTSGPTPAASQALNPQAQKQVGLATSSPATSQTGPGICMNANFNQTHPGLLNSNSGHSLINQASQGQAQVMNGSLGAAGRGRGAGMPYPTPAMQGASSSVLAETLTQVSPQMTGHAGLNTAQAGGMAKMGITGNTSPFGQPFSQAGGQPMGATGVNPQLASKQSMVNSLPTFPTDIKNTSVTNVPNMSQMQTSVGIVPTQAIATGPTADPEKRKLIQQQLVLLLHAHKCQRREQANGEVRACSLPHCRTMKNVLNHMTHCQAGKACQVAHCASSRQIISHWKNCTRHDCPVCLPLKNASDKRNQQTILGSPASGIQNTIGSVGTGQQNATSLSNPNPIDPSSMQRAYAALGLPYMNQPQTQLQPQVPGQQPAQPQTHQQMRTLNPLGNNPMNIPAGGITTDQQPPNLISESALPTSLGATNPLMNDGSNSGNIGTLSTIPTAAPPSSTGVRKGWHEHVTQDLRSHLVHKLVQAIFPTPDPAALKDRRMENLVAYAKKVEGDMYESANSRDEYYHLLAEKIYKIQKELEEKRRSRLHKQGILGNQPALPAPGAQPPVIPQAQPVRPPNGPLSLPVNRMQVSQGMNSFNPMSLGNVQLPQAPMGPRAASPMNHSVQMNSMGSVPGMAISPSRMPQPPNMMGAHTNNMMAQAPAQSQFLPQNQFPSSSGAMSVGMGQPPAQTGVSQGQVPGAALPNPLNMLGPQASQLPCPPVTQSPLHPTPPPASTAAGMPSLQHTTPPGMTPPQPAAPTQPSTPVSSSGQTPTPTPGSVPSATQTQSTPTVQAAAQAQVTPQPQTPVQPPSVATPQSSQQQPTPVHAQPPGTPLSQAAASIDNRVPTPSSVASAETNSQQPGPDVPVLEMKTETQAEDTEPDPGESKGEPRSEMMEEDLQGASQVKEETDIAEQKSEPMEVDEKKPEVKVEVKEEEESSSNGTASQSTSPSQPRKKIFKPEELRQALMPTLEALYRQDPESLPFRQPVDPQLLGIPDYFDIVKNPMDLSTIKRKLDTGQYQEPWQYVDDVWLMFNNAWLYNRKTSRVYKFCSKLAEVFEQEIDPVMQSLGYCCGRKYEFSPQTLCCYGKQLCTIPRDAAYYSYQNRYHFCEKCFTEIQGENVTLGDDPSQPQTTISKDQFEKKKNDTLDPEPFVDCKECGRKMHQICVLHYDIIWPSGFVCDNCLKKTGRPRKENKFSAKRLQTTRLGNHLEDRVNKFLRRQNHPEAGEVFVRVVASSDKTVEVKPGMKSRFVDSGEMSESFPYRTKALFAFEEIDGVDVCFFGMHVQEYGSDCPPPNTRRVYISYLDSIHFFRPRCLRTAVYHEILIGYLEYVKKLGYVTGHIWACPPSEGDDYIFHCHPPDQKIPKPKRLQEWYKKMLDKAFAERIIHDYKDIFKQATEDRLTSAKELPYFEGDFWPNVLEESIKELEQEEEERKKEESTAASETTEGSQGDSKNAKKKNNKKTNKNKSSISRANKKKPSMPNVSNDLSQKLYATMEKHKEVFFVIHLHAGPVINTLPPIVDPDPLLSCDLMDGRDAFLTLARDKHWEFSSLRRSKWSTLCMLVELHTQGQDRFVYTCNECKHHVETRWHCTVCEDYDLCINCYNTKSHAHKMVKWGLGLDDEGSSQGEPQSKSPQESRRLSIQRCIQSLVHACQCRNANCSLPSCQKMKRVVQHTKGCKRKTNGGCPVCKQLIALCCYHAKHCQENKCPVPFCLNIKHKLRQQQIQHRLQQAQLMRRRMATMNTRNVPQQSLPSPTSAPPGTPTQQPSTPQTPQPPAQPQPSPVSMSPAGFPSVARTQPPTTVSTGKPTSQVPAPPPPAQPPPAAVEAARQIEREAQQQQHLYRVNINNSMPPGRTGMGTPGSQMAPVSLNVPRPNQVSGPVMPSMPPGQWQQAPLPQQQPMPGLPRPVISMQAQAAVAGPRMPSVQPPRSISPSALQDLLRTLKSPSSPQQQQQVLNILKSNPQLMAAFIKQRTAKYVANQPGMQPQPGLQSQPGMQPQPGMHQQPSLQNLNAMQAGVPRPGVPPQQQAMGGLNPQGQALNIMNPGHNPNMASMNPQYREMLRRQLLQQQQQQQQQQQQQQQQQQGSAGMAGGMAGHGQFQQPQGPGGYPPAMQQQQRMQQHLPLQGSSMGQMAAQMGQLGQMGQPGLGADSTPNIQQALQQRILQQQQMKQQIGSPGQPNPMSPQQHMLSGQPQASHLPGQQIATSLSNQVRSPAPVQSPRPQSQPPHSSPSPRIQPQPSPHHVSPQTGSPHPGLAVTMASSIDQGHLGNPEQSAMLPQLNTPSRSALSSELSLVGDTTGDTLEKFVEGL

[3] = target: T3, p300 (1-111) (disordered sequence region) (Homo sapiens, UniProt Q09472); settings: p300 (1-111) expressed in E. coli; cited from earlier work
T3 construct: made in house; host or cells: E. coli
T3 sequence (Q09472 1-111): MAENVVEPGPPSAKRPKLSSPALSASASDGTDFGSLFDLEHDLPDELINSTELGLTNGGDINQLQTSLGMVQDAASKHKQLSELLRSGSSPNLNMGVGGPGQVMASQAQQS

[4] = target: T4, CBP (1-111) (disordered sequence region) (Homo sapiens, UniProt Q92793); experiment: 2D NMR analysis of 15N-labeled CBP (1-111) with ICG-001; type: binding; settings: 5 μM or 15 μM ICG-001
T4 construct: NMR analysis using CBP (1-111) expressed in E. coli as a sample; made in house; host or cells: E. coli
T4 sequence (Q92793 1-111): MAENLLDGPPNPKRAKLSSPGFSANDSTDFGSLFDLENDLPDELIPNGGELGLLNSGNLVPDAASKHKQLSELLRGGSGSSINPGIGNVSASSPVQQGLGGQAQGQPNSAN
Procedure: ^15N-labeled CBP (1^-111) (disordered sequence region) was expressed E. coli and dissolved in a buffer (NaP 25 mM·pH 6.8, NaCl 50 mM, 0.02% NaN3), and 300 μl thereof was introduced into an NMR sample tube. Moreover, a D2O solution of ICG-001 was added so as to attain an ICG^-001 concentration of 5 μM or 15 μM. Solutions prepared in this manner as NMR samples were subjected to an NMR analysis. In the NMR analysis, the measurement and analysis was carried out to give a 2D spectrum, with the X axis indicating […] data and the Y axis indicating N-15 data.

T1 sequence (Q92793 1-111): as above

O=C1[C@H](Cc2ccc(O)cc2)N2C(=O)CCN(C(=O)NCc3ccccc3)[C@H]2CN1Cc1cccc2ccccc12 [ICG-001]
separation of CBP (1-111) from β-catenin on addition of compound ([1]; CBP (1-111) and β-catenin expressed in E. coli, pulled down by immunoprecipitation): CBP (1-111) became separated | binding to the N-terminus of CBP ([1]; CBP (1-111), FIG. 2): binds to the N-terminus sequence of CBP; also recorded: bound to the N-terminus of CBP | binding to CBP (pull-down) [2]: binds to CBP; also recorded: bound to CBR | binding to p300 [3]: does not binds to p300; also recorded: did not bind; also recorded: does not occur | interaction between CBP1-111 and compound (NMR) [4]: clear interaction | change of NMR peak of CBP1-111 on addition of compound ([4]; buffer pH 6.8, FIGS. 5 and 6): change of a peak
